Activity calls are given as the source filed them. No cut-off for these calls is given here.
Legend:
[1] = target: T1, Lysine-specific demethylase 5A (Homo sapiens, UniProt P29375); assay: Inhibition of full length human KDM5A using biotinylated H2NART(KMe3)QTARKSTGGKAPRKQLA-NTPEG-biotin as substrate after 30 to 40 mins using 1 uM of 2-OG as co-substrate by TR-FRET assay
[2] = target: T1, Lysine-specific demethylase 5A; assay: Inhibition of full length human KDM5A using biotinylated H2NART(KMe3)QTARKSTGGKAPRKQLA-NTPEG-biotin as substrate after 30 to 40 mins using 20 uM of 2-OG as co-substrate by TR-FRET assay
[3] = Hepatic clearance in human liver microsomes; assay type: ADME, Microsome
[4] = Dissociation constant, pKa of the compound; assay type: physicochemical
[5] = Apparent permeability from apical to basolateral side in MDCK cells; assay type: ADME, cell-based, Canis lupus familiaris; settings: dog
[6] = target: T1, Lysine-specific demethylase 5A; assay: Inhibition of KDM5A in human PC9 cells assessed as increase in H3K4me3 levels upto 30 uM after 4 days by HTRF assay; assay type: cell-based
[7] = Plasma protein binding in human; assay type: ADME, cell-free; settings: read-out: PPB (converted)
Homo sapiens [8] = organism: Homo sapiens; assay: Selectivity ratio of IC50 for full length human KDM4C to IC50 for full length human KDM5A
Homo sapiens [9] = organism: Homo sapiens; assay: Selectivity ratio of IC50 for full length human KDM2B to IC50 for full length human KDM5A
[10] = target: T2, Lysine-specific demethylase 2B (Homo sapiens, UniProt Q8NHM5); assay: Inhibition of full length human KDM2B using biotinylated H2N-RKSAPATGGV(KMe2)KPHRYRPGTV-NTPEGBiot as substrate after 2 hrs using 0.3 uM of 2-OG as co-substrate by TR-FRET assay
T2 sequence (Q8NHM5 whole entry): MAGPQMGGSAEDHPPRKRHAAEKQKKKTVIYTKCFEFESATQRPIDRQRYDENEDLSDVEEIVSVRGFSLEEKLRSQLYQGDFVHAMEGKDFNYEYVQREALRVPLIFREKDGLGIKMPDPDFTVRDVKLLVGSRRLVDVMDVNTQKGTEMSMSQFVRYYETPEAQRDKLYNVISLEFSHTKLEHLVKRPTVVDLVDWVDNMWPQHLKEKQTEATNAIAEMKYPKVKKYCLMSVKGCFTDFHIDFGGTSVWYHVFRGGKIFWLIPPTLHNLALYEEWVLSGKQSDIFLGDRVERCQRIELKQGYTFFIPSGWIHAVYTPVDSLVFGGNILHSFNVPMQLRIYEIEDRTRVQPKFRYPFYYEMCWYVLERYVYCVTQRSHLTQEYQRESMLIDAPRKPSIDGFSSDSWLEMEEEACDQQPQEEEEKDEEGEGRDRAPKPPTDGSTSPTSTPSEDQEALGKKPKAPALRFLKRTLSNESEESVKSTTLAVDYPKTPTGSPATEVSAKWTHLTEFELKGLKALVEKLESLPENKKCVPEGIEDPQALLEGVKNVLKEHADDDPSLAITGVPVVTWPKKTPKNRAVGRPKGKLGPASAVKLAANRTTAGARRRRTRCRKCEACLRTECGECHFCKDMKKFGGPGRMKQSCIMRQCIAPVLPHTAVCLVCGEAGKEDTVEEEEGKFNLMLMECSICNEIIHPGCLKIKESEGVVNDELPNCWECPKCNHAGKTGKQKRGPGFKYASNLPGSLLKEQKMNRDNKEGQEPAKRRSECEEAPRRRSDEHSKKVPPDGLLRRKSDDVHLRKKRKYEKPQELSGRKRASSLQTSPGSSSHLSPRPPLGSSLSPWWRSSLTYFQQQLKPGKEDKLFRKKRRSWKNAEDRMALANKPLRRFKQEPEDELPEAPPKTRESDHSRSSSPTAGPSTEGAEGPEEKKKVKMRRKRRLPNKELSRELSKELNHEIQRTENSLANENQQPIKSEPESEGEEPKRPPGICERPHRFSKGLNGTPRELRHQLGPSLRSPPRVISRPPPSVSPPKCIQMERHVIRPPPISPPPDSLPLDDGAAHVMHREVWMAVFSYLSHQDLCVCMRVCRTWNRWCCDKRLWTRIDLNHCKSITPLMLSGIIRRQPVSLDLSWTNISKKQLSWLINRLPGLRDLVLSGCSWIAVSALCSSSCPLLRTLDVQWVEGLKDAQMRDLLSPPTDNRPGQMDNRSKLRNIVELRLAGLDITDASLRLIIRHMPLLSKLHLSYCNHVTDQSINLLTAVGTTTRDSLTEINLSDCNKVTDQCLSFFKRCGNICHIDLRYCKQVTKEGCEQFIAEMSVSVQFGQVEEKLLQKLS

[11] = target: T3, Lysine-specific demethylase 4C (Homo sapiens, UniProt Q9H3R0); assay: Inhibition of full length human KDM4C using biotinylated H2N-ARTKQTAR(KMe3)STGGKAPRKQLA-NTPEGBiot as substrate after 30 mins using 3 uM of 2-OG as co-substrate by TR-FRET assay
T3 sequence (Q9H3R0 whole entry): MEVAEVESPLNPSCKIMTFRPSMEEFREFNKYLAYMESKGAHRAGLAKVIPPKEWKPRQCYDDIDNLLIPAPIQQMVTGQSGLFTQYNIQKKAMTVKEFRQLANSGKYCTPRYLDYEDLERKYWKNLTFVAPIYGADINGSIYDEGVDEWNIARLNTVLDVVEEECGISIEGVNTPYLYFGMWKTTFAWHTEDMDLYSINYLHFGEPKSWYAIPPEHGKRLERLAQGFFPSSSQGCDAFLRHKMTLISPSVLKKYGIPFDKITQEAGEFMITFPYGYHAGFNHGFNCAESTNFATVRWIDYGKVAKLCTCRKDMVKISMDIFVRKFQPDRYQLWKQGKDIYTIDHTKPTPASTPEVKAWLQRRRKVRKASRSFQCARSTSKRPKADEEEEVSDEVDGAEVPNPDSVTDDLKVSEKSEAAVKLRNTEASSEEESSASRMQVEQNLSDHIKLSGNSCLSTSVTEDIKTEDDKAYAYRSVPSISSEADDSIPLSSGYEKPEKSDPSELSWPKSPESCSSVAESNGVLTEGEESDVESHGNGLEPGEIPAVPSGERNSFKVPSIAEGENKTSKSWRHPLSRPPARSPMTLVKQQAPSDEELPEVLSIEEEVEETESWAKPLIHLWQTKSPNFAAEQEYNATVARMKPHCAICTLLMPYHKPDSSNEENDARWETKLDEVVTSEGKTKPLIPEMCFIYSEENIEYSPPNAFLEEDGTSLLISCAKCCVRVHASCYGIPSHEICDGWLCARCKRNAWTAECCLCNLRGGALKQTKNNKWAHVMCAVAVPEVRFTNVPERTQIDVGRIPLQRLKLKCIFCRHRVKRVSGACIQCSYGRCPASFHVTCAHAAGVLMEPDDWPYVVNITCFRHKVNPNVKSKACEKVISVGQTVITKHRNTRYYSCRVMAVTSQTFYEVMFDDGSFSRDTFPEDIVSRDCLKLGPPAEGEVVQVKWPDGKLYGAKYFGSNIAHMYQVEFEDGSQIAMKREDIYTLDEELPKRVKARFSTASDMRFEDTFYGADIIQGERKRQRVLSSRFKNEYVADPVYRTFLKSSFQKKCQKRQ

[12] = target: T1, Lysine-specific demethylase 5A; assay: Ratio of IC50 for full length human KDM5A using biotinylated H2NART(KMe3)QTARKSTGGKAPRKQLA-NTPEG-biotin as substrate and 10 uM of 2-OG as co-substrate to IC50 for full length human KDM5A using biotinylated H2NART(KMe3)QTARKSTGGKAPRKQLA-NTPEG-biotin as substrate and 1 uM of 2-OG as co-substrate
[13] = Competitive inhibition of KDM5 (unknown origin) in presence of 2-OG; parameters: species or system Homo sapiens
[14] = target: Lysine-specific demethylase 5B (Homo sapiens, UniProt Q9UGL1); assay: Inhibition of full length human KDM5B using biotinylated H2NART(KMe3)QTARKSTGGKAPRKQLA-NTPEG-biotin as substrate after 30 to 40 mins using 2 uM of 2-OG as co-substrate by TR-FRET assay
[15] = target: Lysine-specific demethylase 5C (Homo sapiens, UniProt P41229); assay: Inhibition of full length human KDM5C using biotinylated H2NART(KMe3)QTARKSTGGKAPRKQLA-NTPEG-biotin as substrate after 30 to 40 mins using 1 uM of 2-OG as co-substrate by TR-FRET assay
Lysine-specific demethylase 5C, sequence (P41229 whole entry): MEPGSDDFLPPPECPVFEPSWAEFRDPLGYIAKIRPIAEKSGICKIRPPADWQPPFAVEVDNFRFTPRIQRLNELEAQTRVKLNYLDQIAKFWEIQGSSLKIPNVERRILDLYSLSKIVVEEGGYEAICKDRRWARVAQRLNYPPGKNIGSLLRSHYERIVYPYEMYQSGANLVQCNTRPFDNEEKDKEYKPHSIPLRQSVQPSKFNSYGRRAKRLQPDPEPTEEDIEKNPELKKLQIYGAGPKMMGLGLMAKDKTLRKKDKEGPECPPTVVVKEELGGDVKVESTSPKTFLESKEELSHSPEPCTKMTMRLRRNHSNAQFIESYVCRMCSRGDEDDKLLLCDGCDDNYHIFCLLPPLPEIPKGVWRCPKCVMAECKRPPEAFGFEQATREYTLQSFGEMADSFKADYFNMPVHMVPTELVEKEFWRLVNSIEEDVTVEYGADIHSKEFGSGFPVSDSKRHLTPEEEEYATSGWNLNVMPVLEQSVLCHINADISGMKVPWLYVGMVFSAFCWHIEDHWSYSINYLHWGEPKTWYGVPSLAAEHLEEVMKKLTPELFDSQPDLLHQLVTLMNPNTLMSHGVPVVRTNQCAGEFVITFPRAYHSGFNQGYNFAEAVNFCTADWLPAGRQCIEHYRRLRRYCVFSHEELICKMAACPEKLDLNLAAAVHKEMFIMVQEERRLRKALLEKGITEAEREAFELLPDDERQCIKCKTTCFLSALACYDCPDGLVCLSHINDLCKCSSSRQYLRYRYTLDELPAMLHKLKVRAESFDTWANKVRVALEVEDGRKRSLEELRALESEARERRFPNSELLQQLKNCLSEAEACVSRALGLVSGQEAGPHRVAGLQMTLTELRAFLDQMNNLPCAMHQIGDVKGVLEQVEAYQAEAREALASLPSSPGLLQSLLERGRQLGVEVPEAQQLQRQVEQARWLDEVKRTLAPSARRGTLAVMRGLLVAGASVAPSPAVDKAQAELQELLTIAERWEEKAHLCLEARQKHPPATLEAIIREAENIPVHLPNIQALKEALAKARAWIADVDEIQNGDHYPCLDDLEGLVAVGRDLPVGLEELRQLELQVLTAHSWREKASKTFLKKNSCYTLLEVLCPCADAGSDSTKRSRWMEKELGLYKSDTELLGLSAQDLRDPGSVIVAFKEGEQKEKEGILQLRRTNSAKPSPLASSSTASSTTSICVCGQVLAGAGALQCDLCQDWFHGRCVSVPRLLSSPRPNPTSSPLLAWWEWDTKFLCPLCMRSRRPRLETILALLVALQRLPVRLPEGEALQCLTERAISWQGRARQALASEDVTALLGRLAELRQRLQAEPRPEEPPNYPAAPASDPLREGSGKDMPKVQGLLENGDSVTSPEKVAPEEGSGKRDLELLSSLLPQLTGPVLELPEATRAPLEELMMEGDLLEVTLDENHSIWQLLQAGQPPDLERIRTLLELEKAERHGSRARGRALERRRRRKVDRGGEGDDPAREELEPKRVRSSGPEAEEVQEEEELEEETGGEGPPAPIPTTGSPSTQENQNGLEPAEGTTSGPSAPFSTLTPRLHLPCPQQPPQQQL

T1 sequence (P29375 whole entry): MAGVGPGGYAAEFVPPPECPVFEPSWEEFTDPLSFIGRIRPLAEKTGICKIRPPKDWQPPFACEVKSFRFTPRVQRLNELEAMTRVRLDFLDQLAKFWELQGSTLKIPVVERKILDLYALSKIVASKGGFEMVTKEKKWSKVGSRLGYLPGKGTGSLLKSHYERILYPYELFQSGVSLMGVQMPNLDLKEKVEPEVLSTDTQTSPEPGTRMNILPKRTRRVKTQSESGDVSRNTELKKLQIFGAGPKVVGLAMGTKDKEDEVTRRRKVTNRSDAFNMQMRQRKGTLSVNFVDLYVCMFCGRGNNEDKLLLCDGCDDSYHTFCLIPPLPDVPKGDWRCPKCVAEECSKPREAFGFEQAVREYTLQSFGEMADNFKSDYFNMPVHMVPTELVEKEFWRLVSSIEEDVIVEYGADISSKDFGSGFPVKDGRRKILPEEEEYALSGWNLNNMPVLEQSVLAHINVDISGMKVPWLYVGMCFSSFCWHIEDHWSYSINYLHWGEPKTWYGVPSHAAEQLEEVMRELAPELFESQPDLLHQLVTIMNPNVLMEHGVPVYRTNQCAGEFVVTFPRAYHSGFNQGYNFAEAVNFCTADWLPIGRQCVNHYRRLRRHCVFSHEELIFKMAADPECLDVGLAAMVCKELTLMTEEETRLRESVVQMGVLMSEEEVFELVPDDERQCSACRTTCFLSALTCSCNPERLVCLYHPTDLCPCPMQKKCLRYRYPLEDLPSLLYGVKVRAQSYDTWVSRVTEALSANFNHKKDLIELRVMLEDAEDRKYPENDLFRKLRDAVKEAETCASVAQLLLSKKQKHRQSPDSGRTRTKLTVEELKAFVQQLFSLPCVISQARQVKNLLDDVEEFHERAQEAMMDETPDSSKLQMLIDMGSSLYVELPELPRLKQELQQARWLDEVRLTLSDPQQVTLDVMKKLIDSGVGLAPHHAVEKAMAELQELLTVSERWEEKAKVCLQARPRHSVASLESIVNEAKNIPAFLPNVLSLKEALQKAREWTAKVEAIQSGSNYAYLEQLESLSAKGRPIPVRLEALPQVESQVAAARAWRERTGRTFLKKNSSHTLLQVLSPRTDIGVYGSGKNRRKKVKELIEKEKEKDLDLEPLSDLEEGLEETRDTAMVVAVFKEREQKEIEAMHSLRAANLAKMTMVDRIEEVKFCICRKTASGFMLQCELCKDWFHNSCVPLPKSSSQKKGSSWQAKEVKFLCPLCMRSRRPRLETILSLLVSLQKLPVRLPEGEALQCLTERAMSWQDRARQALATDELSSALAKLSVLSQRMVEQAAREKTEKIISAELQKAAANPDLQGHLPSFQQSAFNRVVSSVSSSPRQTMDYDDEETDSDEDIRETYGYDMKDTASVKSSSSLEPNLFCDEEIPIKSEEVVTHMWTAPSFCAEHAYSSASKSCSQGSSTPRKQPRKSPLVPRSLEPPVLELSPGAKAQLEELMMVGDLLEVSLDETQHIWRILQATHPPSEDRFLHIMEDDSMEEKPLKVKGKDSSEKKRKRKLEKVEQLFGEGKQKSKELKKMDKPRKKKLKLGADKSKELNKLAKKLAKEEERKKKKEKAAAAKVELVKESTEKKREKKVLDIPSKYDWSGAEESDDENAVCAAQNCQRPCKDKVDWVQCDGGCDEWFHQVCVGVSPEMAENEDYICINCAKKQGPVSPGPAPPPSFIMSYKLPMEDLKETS
Lysine-specific demethylase 5B, sequence (Q9UGL1 whole entry): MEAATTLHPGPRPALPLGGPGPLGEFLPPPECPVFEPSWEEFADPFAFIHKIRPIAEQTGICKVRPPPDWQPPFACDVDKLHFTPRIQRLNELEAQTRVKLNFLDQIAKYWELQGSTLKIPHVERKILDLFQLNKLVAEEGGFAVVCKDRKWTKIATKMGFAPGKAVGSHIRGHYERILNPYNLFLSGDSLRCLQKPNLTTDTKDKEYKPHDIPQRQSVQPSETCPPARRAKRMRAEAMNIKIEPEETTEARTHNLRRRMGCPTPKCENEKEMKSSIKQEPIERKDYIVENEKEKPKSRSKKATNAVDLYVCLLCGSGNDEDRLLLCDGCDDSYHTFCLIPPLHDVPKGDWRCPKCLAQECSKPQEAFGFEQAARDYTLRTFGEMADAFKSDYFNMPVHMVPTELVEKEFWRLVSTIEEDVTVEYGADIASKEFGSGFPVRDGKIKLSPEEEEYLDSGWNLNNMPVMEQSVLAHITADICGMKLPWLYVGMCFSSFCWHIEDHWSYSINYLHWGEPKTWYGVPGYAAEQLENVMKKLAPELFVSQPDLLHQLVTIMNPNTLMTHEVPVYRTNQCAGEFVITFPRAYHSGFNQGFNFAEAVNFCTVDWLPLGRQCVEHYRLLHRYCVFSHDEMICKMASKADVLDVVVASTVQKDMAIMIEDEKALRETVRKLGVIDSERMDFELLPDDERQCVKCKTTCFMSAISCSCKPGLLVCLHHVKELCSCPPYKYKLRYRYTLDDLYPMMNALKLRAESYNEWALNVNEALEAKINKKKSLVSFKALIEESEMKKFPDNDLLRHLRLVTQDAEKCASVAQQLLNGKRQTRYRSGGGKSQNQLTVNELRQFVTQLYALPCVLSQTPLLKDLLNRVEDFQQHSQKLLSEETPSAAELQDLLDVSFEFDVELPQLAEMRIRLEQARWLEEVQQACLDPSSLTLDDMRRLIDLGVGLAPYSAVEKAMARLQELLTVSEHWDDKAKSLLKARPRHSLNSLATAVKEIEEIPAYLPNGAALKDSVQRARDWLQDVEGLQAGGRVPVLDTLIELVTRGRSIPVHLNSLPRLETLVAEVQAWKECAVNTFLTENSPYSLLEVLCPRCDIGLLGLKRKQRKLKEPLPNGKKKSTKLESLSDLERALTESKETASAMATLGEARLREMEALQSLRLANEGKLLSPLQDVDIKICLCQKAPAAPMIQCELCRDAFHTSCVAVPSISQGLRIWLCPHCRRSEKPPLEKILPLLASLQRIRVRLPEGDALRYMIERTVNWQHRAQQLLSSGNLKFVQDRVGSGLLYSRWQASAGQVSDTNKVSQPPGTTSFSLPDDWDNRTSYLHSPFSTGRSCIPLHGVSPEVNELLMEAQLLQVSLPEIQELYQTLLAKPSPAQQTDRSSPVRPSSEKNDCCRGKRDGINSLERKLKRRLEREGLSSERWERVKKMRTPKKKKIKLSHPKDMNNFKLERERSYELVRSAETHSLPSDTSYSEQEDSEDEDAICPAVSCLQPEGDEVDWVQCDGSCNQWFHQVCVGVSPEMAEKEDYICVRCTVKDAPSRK

Compound `CC(C)NC(=O)c1c(O)c2ccncc2[nH]c1=O` has an IC50 [1] of 400 nM.
With `CCc1c(O)c2ccncc2[nH]c1=O` the IC50 [2] was 2100 nM and the IC50 [1] was 230 nM.
`CCNC(=O)c1c(O)c2ccncc2[nH]c1=O` gave a CLhep predicted [3] of 11.5 mL/min/kg, a pKa [4] of 6.4 and a Papp A→B [5] of 15.8 ×10⁻⁶ cm/s. For the same compound, the inhibition [6] was “inactive”, the fraction unbound [7] was 0.3 and the IC50 [1] was 50 nM.
With `CNC(=O)c1c(O)c2ccncc2[nH]c1=O` the IC50 [1] was 70 nM.
With `CCOC(=O)c1c(O)c2cccnc2[nH]c1=O` the IC50 [1] was > 25000 nM.
For `CCOC(=O)c1c(O)nc2ccccc2c1O`, the IC50 [1] was > 25000 nM.
`O=c1cc(O)c2ccncc2[nH]1` showed an IC50 [1] of 6700 nM.
Work on `CCN(C)C(=O)c1c(O)c2ccncc2[nH]c1=O` yielded an IC50 [1] of 700 nM.
In the case of `O=c1[nH]c(C(F)(F)F)nc2cnccc12`, the Ratio IC50 (Homo sapiens [8]) is reported as 12, the Ratio IC50 (Homo sapiens [9]) is reported as > 150 and the pKa [4] is reported as 4.6. For the same compound, the IC50 [10] was > 25000 nM, the IC50 [1] was 160 nM and the IC50 [11] was 1900 nM. It also gave a Ratio IC50 [12] of 9.
`CC(C)c1c(-c2ccccc2)[nH]c2c(C#N)cnn2c1=O` gave an IC50 [13] of 10 nM.
For `O=C(NCc1ccccc1)c1c(O)c2ccncc2[nH]c1=O`, the IC50 [1] was > 25000 nM.
`CN(C)C(=O)c1c(O)c2ccncc2[nH]c1=O` gave an IC50 [1] of 5300 nM.
Work on `CCc1c(O)c2ccncc2n(CC)c1=O` yielded an IC50 [1] of 3800 nM.
In the case of `O=C(c1c(O)c2ccncc2[nH]c1=O)N1CCCC1`, the IC50 [1] is reported as > 25000 nM.
With `N#Cc1c(O)c2ccccc2[nH]c1=O` the IC50 [1] was > 25000 nM.
In the case of `N#Cc1c(O)c2ccncc2[nH]c1=O`, the IC50 [14] is reported as 70 nM, the pKa [4] is reported as 3.5 and the inhibition [6] is reported as “inactive”. For the same compound, the IC50 [15] was 170 nM, the IC50 [10] was > 25000 nM and the IC50 [1] was 25 nM. The IC50 [11] was > 25000 nM.
